This is an account of results in PubChem BioAssay (NCI).

Each structure is given as a SMILES string.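 Method: 48-hour compound exposure of cells in 96-well plates, five concentrations, linear interpolation of endpoints. The concentration for 50% growth inhibition is given as GI50. TGI: total growth inhibition.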

Test systems include KM12 colon; HCC-2998 colon; SF-295 CNS; UACC-62 melanoma; NCI-H23 lung; CAKI-1 renal; OVCAR-3 ovarian; SN12C renal; CCRF-CEM leukemia; RXF 393 renal.
What all share (test): DTP human tumour cell line panel, 48 h

`COc1cc([C@H]2c3cc(O)c(OC)cc3C[C@]3(O)[C@@H]2CO[C@@H]3O)ccc1O`: the TGI in the experiment with KM12 colon, in the experiment on HCC-2998 colon, in the experiment on SF-295 CNS, in the experiment with UACC-62 melanoma, in the experiment with NCI-H23 lung and in the experiment on CAKI-1 renal was above 100 µM in each case. The TGI in the experiment with OVCAR-3 ovarian, with SN12C renal and with CCRF-CEM leukemia was above 100 µM each time.

Regarding `NC1=NN(c2ccccc2)C(=O)C1/C(=N\NC(=O)c1cc2ccccc2cc1O)C(=O)Nc1ccc(Cl)cc1` (centres undefined), the TGI – broadly, the concentration at which net growth stops – in the experiment with KM12 colon is above 100 µM; with HCC-2998 colon, above 100 µM; in the experiment on SF-295 CNS it was above 100 µM; in the experiment on UACC-62 melanoma, 66.2 µM; in the experiment with NCI-H23 lung, 77.3 µM; with CAKI-1 renal, above 100 µM. The results for the TGI in the experiment on OVCAR-3 ovarian, in the experiment with SN12C renal and in the experiment on CCRF-CEM leukemia were above 100 µM, above 100 µM and 24.4 µM, respectively.

`CCNc1nc(-c2ccc(Cl)c(OC)c2)c(-c2ccnc(NCCNS(=O)(=O)c3ccc(Cl)cc3)n2)s1`: the GI50 (commonly the concentration giving 50% growth inhibition) is 3.52 µM in the experiment on KM12 colon; 4.97 µM in the experiment on HCC-2998 colon; 1.89 µM with SF-295 CNS; 2.11 µM with UACC-62 melanoma; 3.5 µM in the experiment on NCI-H23 lung; 2.45 µM in the experiment on OVCAR-3 ovarian. Moreover, the figures for the GI50 with SN12C renal, in the experiment on RXF 393 renal and in the experiment on CCRF-CEM leukemia were 3.41 µM, 2 µM and 2.83 µM, respectively. The TGI was above 100 µM with KM12 colon; above 100 µM in the experiment on HCC-2998 colon; 3.83 µM with SF-295 CNS; 5.49 µM with UACC-62 melanoma; above 100 µM with NCI-H23 lung; 5.27 µM with OVCAR-3 ovarian. Also, the TGI in the experiment on SN12C renal was above 100 µM; in the experiment with RXF 393 renal it was 5.1 µM; in the experiment with CCRF-CEM leukemia it was above 100 µM.

`CN(C)c1ccc(/C=C2\Cc3ccccc3C2=O)cc1Br`: the TGI in the experiment with KM12 colon, with HCC-2998 colon, in the experiment on SF-295 CNS, in the experiment with UACC-62 melanoma, in the experiment with NCI-H23 lung and in the experiment on CAKI-1 renal was above 100 µM in each case. For the same molecule, the TGI in the experiment on OVCAR-3 ovarian, with SN12C renal and in the experiment with CCRF-CEM leukemia was above 100 µM throughout.

Regarding `O=NNc1nc(-c2ccccn2)nc2ccccc12`, the TGI is above 100 µM in the experiment on KM12 colon; 41 µM in the experiment on HCC-2998 colon; above 100 µM in the experiment with SF-295 CNS; 65 µM in the experiment on UACC-62 melanoma; above 100 µM in the experiment with NCI-H23 lung; above 100 µM with CAKI-1 renal. Besides, the TGI was above 100 µM in the experiment with OVCAR-3 ovarian, above 100 µM in the experiment on SN12C renal and 15.4 µM with CCRF-CEM leukemia.

Take `C=CCCC1(CCP(=O)(c2ccccc2)c2ccccc2)OCCO1`: the TGI with KM12 colon, in the experiment on HCC-2998 colon, in the experiment with SF-295 CNS, in the experiment with UACC-62 melanoma, in the experiment with NCI-H23 lung and with OVCAR-3 ovarian was above 100 µM each time. For the same molecule, the concentration for total growth inhibition (TGI) with SN12C renal, in the experiment with RXF 393 renal and with CCRF-CEM leukemia was above 100 µM throughout.

As to `O=[N+]([O-])C1(CO)COC(CCc2ccccc2)OC1` (centres undefined), the TGI in the experiment with KM12 colon, in the experiment on HCC-2998 colon, with SF-295 CNS, in the experiment with UACC-62 melanoma, in the experiment with NCI-H23 lung and in the experiment with OVCAR-3 ovarian was above 100 µM each time. For the same molecule, the TGI in the experiment on SN12C renal, in the experiment on RXF 393 renal and with CCRF-CEM leukemia was above 100 µM throughout.

In the case of `CCn1c(SC)nnc1-c1cc2c([nH]c3ccccc32)c(-c2cccc(O)c2)n1`, the GI50 was 3 µM in the experiment on KM12 colon; 4.94 µM in the experiment on HCC-2998 colon; 1.83 µM with SF-295 CNS; 1.27 µM in the experiment on UACC-62 melanoma; 4.51 µM with NCI-H23 lung; 1.67 µM with OVCAR-3 ovarian. Further, the values for the GI50 in the experiment on SN12C renal, in the experiment on RXF 393 renal and in the experiment on CCRF-CEM leukemia were 4.44 µM, 1.14 µM and 1.57 µM, respectively. The TGI was found to be 44.7 µM in the experiment on KM12 colon; 62.3 µM in the experiment with HCC-2998 colon; 5.23 µM with SF-295 CNS; 8.71 µM in the experiment with UACC-62 melanoma; 50.6 µM in the experiment with NCI-H23 lung; 5.35 µM in the experiment with OVCAR-3 ovarian. Besides, the TGI in the experiment with SN12C renal was 51.4 µM; with RXF 393 renal it was 3.18 µM; in the experiment on CCRF-CEM leukemia, above 100 µM.

As to `O=C(Nc1ccccc1)Oc1ccccc1C1CCCCC1`, the TGI in the experiment on KM12 colon was above 100 µM; in the experiment with HCC-2998 colon, 81.5 µM; in the experiment on SF-295 CNS, 51.2 µM; with UACC-62 melanoma it was above 100 µM; in the experiment on NCI-H23 lung, 47.1 µM; in the experiment with OVCAR-3 ovarian, 34.7 µM. The results for the total growth inhibition concentration (TGI) in the experiment on SN12C renal, in the experiment with RXF 393 renal and with CCRF-CEM leukemia were 41.1 µM, 21.9 µM and 67.3 µM, respectively.

Turning to `O=C1COc2cc3c(cc2N1)SCC(=O)N3`, the TGI with KM12 colon, in the experiment with HCC-2998 colon, with SF-295 CNS, with UACC-62 melanoma, in the experiment on NCI-H23 lung and in the experiment with CAKI-1 renal was above 100 µM each time. Also, the total growth inhibition concentration (TGI) in the experiment with OVCAR-3 ovarian and in the experiment with CCRF-CEM leukemia was above 100 µM each time.

With `Cc1cc2c(=O)cc(-c3ccncc3)oc2c(C(=O)O)c1C`, the concentration for total growth inhibition (TGI) in the experiment with HCC-2998 colon, in the experiment on SF-295 CNS, in the experiment with UACC-62 melanoma, in the experiment with NCI-H23 lung, in the experiment on OVCAR-3 ovarian and in the experiment with SN12C renal was above 100 µM in each case. In addition, the TGI in the experiment on RXF 393 renal and in the experiment with CCRF-CEM leukemia was above 100 µM throughout.

`CCCNc1ncnc2c1cnn2C`: the TGI with KM12 colon, with HCC-2998 colon, in the experiment with SF-295 CNS, with UACC-62 melanoma, with NCI-H23 lung and with CAKI-1 renal was above 100 µM throughout. Besides, the TGI in the experiment with OVCAR-3 ovarian, in the experiment with SN12C renal and in the experiment with CCRF-CEM leukemia was above 100 µM throughout.

For `CCCCCCCCCCCCCCCC(=O)NCC(OCC)OCC`, the TGI in the experiment on KM12 colon, with HCC-2998 colon, in the experiment with SF-295 CNS, in the experiment on UACC-62 melanoma, in the experiment with NCI-H23 lung and in the experiment with OVCAR-3 ovarian was above 100 µM in each case. Besides, the TGI in the experiment on SN12C renal, in the experiment with RXF 393 renal and with CCRF-CEM leukemia was above 100 µM in each case.

`Cn1nc(-c2ccccc2)c(C(=O)/C=C/c2ccccc2)c(N2CCCC2)c1=O`: the TGI with UACC-62 melanoma came to 41 µM; in the experiment on NCI-H23 lung it was 29.9 µM; in the experiment on SN12C renal, 77.6 µM; in the experiment on RXF 393 renal, 23.9 µM; in the experiment on CCRF-CEM leukemia, 40.6 µM.

Turning to `CC1CC2C(=O)N(c3ccccc3)C(=O)C2c2[nH]c3ccccc3c21` (centres undefined), the TGI with KM12 colon, with HCC-2998 colon, in the experiment with SF-295 CNS, in the experiment on UACC-62 melanoma, in the experiment on NCI-H23 lung and in the experiment on OVCAR-3 ovarian was above 100 µM each time. Further, the TGI in the experiment on SN12C renal, with RXF 393 renal and in the experiment on CCRF-CEM leukemia was above 100 µM each time.

For `O=C(O)C12C3C4C1C1C2C3C41I` (centres undefined), the total growth inhibition concentration (TGI) with KM12 colon, in the experiment on HCC-2998 colon, in the experiment with SF-295 CNS, with UACC-62 melanoma, with NCI-H23 lung and with CAKI-1 renal was above 100 µM each time. In addition, the TGI with OVCAR-3 ovarian, in the experiment on SN12C renal and with CCRF-CEM leukemia was above 100 µM each time.

Regarding `O=C(Nc1cccc(C(F)(F)F)c1)Nc1ccc(OCc2nnc(-c3ccccc3)o2)c(F)c1`, the GI50 in the experiment on KM12 colon was 2.43 µM; in the experiment with HCC-2998 colon it was 6.4 µM; in the experiment on SF-295 CNS, 2.7 µM; with UACC-62 melanoma, 4.1 µM; in the experiment on NCI-H23 lung, 4.49 µM; in the experiment on CAKI-1 renal, 6.68 µM. Besides, the GI50 was 4.23 µM in the experiment on OVCAR-3 ovarian, 9.36 µM in the experiment on SN12C renal and 3.29 µM in the experiment with CCRF-CEM leukemia. Besides, the concentration for total growth inhibition (TGI) in the experiment with KM12 colon worked out at 12.8 µM; with HCC-2998 colon it was 59.8 µM; in the experiment on SF-295 CNS, 14.1 µM; with UACC-62 melanoma, 24.6 µM; in the experiment with NCI-H23 lung, 24.5 µM; in the experiment with CAKI-1 renal, 37.4 µM. Further, the TGI is 17 µM with OVCAR-3 ovarian, 46.1 µM with SN12C renal and 54.9 µM in the experiment on CCRF-CEM leukemia.

Take `CCOC(=O)Oc1ccc2[nH]c3c(C)cc(N)c(C)c3c2c1`: the TGI in the experiment on KM12 colon, in the experiment with HCC-2998 colon, in the experiment with SF-295 CNS, in the experiment on NCI-H23 lung, in the experiment with CAKI-1 renal and in the experiment with OVCAR-3 ovarian was above 100 µM each time. The TGI in the experiment with SN12C renal and in the experiment with CCRF-CEM leukemia was above 100 µM in each case.

`Cn1ncc2c(c1=O)Nc1ccccc1S2(=O)=O`: the TGI in the experiment with KM12 colon, in the experiment with HCC-2998 colon, with SF-295 CNS, in the experiment on UACC-62 melanoma, in the experiment with NCI-H23 lung and in the experiment on CAKI-1 renal was above 100 µM each time. Besides, the TGI with OVCAR-3 ovarian, in the experiment on SN12C renal and in the experiment on CCRF-CEM leukemia was above 100 µM throughout.

Take `O=[N+]([O-])c1cccc(C2=NOC3CCCC23)c1` (centres undefined): the TGI with KM12 colon, in the experiment on HCC-2998 colon, in the experiment with SF-295 CNS, in the experiment on UACC-62 melanoma, in the experiment with NCI-H23 lung and with CAKI-1 renal was above 100 µM each time. The TGI in the experiment on OVCAR-3 ovarian, in the experiment with SN12C renal and with CCRF-CEM leukemia was above 100 µM each time.

In the case of `COC(=O)CCSC(=O)Nc1ccccc1Cl`, the TGI in the experiment with KM12 colon, in the experiment with HCC-2998 colon, in the experiment with SF-295 CNS, in the experiment with UACC-62 melanoma, in the experiment with NCI-H23 lung and in the experiment with CAKI-1 renal was above 100 µM each time. In addition, the TGI in the experiment on OVCAR-3 ovarian, in the experiment with SN12C renal and in the experiment with CCRF-CEM leukemia was above 100 µM throughout.
